Assays:
Experiment in all cases: Oxidation by cell fractions P(40), P(80), S(80)
Assay type in all cases: biochemical
[1] = biological target: T1, cell fractions of Methylosinus sp. (CRL-15, NRRL B-11,202) (Methylosinus trichosporium, UniProt Q50541+Q9KX50+Q9KX51); settings: for Rate of Product Formation: P(40) particulate fraction, alkene to epoxide, alkane to alcohol; for Rate of Product Formation / Oxidizing Activity (rate of oxidation) in cell fraction: 30° C.; for Conversion Rate: particulate P(40) fraction, n-propane to 2-propanol, n-butane to 2-butanol; for 100% activity, product formed (storage study) / 100% activity, product formed (pH study) / 100% activity, product formed (temperature study) / Oxidizing Activity (rate of oxidation) in cell fraction: methane to methanol, propylene to propylene oxide; for 100% activity, product formed (pH study): optimum pH 7.0; for 100% activity, product formed (temperature study): optimum temperature 35° C.; for % Distribution in Cell Fraction: propylene-epoxidizing / methane-hydroxylating activity; for Product Formed / O2 Consumed / NADH Oxidized: stoichiometry, 5.0 μ moles substrate; for Product Formed: gas chromatography; for O2 Consumed: polarographically; for NADH Oxidized: spectrophotometrically
T1 sequence (Q9KX50 40-431): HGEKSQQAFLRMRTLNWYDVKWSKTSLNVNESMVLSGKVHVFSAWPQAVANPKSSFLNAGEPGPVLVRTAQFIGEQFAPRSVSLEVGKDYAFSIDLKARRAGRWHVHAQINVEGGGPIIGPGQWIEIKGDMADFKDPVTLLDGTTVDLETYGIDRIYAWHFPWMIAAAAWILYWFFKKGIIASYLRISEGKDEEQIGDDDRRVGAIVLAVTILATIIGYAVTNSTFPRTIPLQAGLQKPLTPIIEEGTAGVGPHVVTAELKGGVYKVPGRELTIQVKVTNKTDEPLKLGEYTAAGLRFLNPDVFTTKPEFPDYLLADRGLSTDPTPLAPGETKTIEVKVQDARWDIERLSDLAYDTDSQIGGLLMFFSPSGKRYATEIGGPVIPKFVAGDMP
T1 sequence (Q50541 1-252): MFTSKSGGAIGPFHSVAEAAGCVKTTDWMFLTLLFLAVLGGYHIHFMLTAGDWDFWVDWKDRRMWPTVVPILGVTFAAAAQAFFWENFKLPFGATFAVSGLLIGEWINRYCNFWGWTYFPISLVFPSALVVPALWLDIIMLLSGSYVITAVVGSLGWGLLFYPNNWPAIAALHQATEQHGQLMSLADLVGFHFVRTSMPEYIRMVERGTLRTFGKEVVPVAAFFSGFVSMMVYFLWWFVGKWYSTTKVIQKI
T1 sequence (Q9KX51 1-256): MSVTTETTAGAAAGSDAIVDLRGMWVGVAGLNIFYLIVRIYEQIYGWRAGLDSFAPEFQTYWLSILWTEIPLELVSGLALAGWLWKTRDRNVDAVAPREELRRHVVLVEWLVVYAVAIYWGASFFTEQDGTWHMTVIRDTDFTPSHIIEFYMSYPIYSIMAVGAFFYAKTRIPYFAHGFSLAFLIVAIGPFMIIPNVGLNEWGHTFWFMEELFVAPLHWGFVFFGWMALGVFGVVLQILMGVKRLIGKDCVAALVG
Experimental: (§1) Cells were washed twice with 25 mM potassium phosphate buffer, pH 7.0 containing 5 mM MgCl2. Cells were suspended in the same buffer. The cell suspensions at 4° C. were disintegrated by a single passage through a French Pressure cell (15,000 lb./in.^2) and centrifuged at 5000×g. for 15 min. to remove unbroken bacteria. The supernatant solution (crude extract) was then centrifuged at 40,000×g. for 30 min., yielding particulate P(40) and soluble S(40) fractions. The S(40) fraction was subsequently centrifuged at 80,000×g. for 60 min., yielding particulate P(80) and soluble S(80) fractions. The particulate fractions [P(40) and P(80)] were suspended in 25 mM potassium phosphate buffer, pH 7.0, containing 5 mM MgCl2 and homogenized at 4° C.
(§2) The oxidation of methane and propylene by particulate [(P)40 and (P)80] fractions and soluble [S(80)] fraction was measured at 30° C. by estimating the production of methanol and propylene oxide, respectively. The reaction mixtures contained in […]: 150 mM potassium phosphate buffer, pH 7.0 containing 5 mM MgCl2 b, 0.6 ml; 10μ moles NADH, and cellular fraction.
(§3) Reaction mixtures were contained in 10 ml vials at 4° C. Vials were sealed with rubber caps. The gaseous phase in the vials was removed using vacuum and then was replaced with a gas mixture of methane or propylene and oxygen at a 1:1, v/v ratio. Oxidation of other gaseous n-alkanes and n-alkanes was examined as described above. For liquid substrates, 10 μl of substrate was used directly.
(§4) The products of epoxidation of n-alkenes and hydroxylation of n-alkanes were assayed by flame ionization gas chromatography using a stainless steel column (12'×1/8") packed with 10% Carbowax 20 M on 80/100 Chromosorb W and Porapak Q column. The column temperature was maintained isothermally at 120° C. The carrier gas flow rate was 30 ml/min. of helium. The various products were identified by retention time comparisons and co-chromatography with authentic standards.
(§5) Specific activities were expressed as μ moles of products formed per hour per mg. protein. Concentrations of protein in various fractions were determined by the method of Lowry et al., J. Biol. Chem., 193: 265-275 (1951).

[2] = system: cell fractions of Methylobacterium sp. (CRL-26, NRRL B-11,222); settings: for Conversion Rate: particulate P(40) fraction, n-propane to 2-propanol, n-butane to 2-butanol; for Oxidizing Activity (rate of oxidation) in cell fraction: propylene to propylene oxide, methane to methanol, 30° C.
Experimental: as §1, §2, §3, §4, §5

[3] = biological target: T2, cell fractions of Methylococcus capsulatus (Texas, ATCC 19,069) (Methylococcus capsulatus, UniProt G1UBD1+Q603F1+Q607G3); settings: for Conversion Rate: particulate P(40) fraction, n-propane to 2-propanol, n-butane to 2-butanol; for Oxidizing Activity (rate of oxidation) in cell fraction: propylene to propylene oxide, methane to methanol, 30° C.; for % Distribution in Cell Fraction: propylene-epoxidizing / methane-hydroxylating activity
T2 sequence (G1UBD1 33-414): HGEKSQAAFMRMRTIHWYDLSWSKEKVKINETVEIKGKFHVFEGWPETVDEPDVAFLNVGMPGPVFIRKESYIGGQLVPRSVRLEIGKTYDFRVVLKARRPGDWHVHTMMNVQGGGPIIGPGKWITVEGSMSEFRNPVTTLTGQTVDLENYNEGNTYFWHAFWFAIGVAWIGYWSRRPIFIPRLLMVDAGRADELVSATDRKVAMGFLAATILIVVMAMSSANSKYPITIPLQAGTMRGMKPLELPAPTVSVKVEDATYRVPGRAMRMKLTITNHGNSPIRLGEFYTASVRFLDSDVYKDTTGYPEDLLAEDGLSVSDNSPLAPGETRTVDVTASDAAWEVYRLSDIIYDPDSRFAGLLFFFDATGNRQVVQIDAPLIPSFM
T2 sequence (Q607G3 1-247): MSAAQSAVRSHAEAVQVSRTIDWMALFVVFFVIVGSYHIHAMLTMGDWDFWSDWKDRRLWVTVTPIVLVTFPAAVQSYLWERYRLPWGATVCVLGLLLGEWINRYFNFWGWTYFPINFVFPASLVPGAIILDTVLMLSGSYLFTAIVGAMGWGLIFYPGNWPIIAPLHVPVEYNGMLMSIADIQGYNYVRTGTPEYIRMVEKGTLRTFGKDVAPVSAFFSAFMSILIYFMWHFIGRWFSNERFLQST
T2 sequence (Q603F1 1-260): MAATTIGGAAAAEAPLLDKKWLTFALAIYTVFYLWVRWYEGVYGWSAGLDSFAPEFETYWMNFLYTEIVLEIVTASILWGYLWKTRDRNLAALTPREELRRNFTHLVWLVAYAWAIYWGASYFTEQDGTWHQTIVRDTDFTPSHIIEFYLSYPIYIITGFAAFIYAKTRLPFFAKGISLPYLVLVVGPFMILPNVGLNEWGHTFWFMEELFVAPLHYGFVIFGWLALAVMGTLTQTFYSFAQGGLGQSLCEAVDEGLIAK
Experimental: as §1, §2, §3, §4, §5

Compound | Rate of Product Formation [1] | Conversion Rate [2] | Conversion Rate [3] | Conversion Rate [1] | Oxidizing Activity (rate of oxidation) in cell fraction ([2]; P(40)) | Oxidizing Activity (rate of oxidation) in cell fraction ([2]; P(80)) | Oxidizing Activity (rate of oxidation) in cell fraction ([2]; S(80)) | Oxidizing Activity (rate of oxidation) in cell fraction ([3]; P(40)) | % Distribution in Cell Fraction ([3]; P(40)) [%] | Oxidizing Activity (rate of oxidation) in cell fraction ([3]; P(80)) | % Distribution in Cell Fraction ([3]; P(80)) [%] | Oxidizing Activity (rate of oxidation) in cell fraction ([3]; S(80)) | % Distribution in Cell Fraction ([3]; S(80)) [%] | 100% activity, product formed (storage study) ([1]; P(40)) | 100% activity, product formed (pH study) ([1]; P(40)) | 100% activity, product formed (temperature study) ([1]; P(40)) | Oxidizing Activity (rate of oxidation) in cell fraction ([1]; P(40)) | % Distribution in Cell Fraction ([1]; P(40)) [%] | Oxidizing Activity (rate of oxidation) in cell fraction ([1]; P(80)) | % Distribution in Cell Fraction ([1]; P(80)) [%] | further results
C=CC=C [Butadiene] | 0.63 μ moles/hr/mg of protein |  |  |  |  |  |  |  |  |  |  |  |  |  |  |  |  |  |  |  | 
CCCC [Butane] |  | 0.61 μmoles/hr/2.0mg. of protein | 0.92 μmoles/hr/2.0mg. of protein | 0.89 μmoles/hr/2.0mg. of protein |  |  |  |  |  |  |  |  |  |  |  |  |  |  |  |  | 
C [Methane] | 4.8 μ moles/hr/mg of protein |  |  |  | 2.7 μ moles of products formed per | 2.8 μ moles of products formed per | 0 μ moles of products formed per | 3.8 μ moles of products formed per | 90 | 3.9 μ moles of products formed per | 10 | 0 μ moles of products formed per | 0 | 4.8 μmoles per hr. per mg. of prot | 4.8 μmoles per hour per mg protein | 5.0 μmoles per hour per mg of prot | 4.8 μ moles of products formed per | 88 | 4.2 μ moles of products formed per | 12 | Oxidizing Activity (rate of oxidation) in cell fraction ([1]; S(80)): 0 μ moles of products formed per; % Distribution in Cell Fraction ([1]; S(80)): 0%; Product Formed ([1]; P(40)): 4.2 μ moles; O2 Consumed ([1]; P(40)): 4.6 μ moles; NADH Oxidized ([1]; P(40)): 4.8 μ moles
CCC [Propane] |  | 1.0 μmoles/hr/2.0mg. of protein | 1.2 μmoles/hr/2.0mg. of protein | 1.5 μmoles/hr/2.0mg. of protein |  |  |  |  |  |  |  |  |  |  |  |  |  |  |  |  | 
C=CC [Propylene] | 4.1 μ moles/hr/mg of protein |  |  |  | 1.2 μ moles of products formed per | 1.1 μ moles of products formed per | 0 μ moles of products formed per | 2.6 μ moles of products formed per | 89 | 2.0 μ moles of products formed per | 11 | 0 μ moles of products formed per | 0 | 4.1 μmoles per hr. per mg. of prot | 4.1 μmoles per hour per mg protein | 4.2 μmoles per hour per mg of prot | 3.8 μ moles of products formed per | 87 | 3.7 μ moles of products formed per | 13 | Oxidizing Activity (rate of oxidation) in cell fraction ([1]; S(80)): 0 μ moles of products formed per; % Distribution in Cell Fraction ([1]; S(80)): 0%; Product Formed ([1]; P(40)): 4.5 μ moles; O2 Consumed ([1]; P(40)): 4.8 μ moles; NADH Oxidized ([1]; P(40)): 5.0 μ moles

— patent US4347319A, “Microbiological epoxidation process” (priority 1980, dated 1982)
